According to ChEMBL document CHEMBL1148872, “Bradykinin B1 antagonists: biphenyl SAR studies in the cyclopropanecarboxamide series” (Bioorg Med Chem Lett, 2007):

Columns and labels:
B1 bradykinin receptor = molecular target: T1, B1 bradykinin receptor (Homo sapiens, UniProt P46663); assay: Binding affinity to human BK1 receptor
T1 sequence (P46663 whole entry): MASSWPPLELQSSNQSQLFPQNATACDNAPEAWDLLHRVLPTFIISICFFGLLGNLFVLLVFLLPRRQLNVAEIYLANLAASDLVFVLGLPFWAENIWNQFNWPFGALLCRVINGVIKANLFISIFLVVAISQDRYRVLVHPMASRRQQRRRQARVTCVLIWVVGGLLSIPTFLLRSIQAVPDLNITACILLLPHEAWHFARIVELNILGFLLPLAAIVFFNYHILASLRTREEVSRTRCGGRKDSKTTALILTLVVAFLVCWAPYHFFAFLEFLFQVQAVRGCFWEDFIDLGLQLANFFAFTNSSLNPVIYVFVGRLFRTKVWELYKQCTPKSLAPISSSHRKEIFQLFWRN

[1] = molecular target: T2, B1 bradykinin receptor (Homo sapiens) (UniProt P46663); assay: Receptor occupancy efficiency at human BK1 receptor in ex vivo transgenic receptor mouse occupancy model; type: functional
T2 sequence (whole entry): T1 sequence (P46663 whole entry)

in vivo [2] = details: mongrel, dog, po, 3 mg/kg
[3] = Half life in mongrel dog at 3 mg/kg, po or 1 mg/kg, iv; details: in vivo
[4] = Half life in rhesus monkey at 3 mg/kg, po or 1 mg/kg, iv; details: in vivo
[5] = Ratio of drug level in brain to plasma in african green monkey at 2 mg/kg, iv after 30 mins; details: chlorocebus aethiops
[6] = Clearance in Sprague-Dawley rat at 10 mg/kg, po or 2 mg/kg, iv; details: in vivo
[7] = Partition coefficient, log P of the compound; details: octanol/water
[8] = Apparent permeability of the compound; details: not told
in vivo [9] = details: rhesus monkey, po, 3 mg/kg
in vivo [10] = details: Sprague-Dawley, rat, po, 10 mg/kg
Description: Oral bioavailability in Sprague-Dawley rat at 10 mg/kg, po

[11] = Half life in Sprague-Dawley rat at 10 mg/kg, po or 2 mg/kg, iv; details: in vivo

Compound | Ki (B1 bradykinin receptor) [nM] | Occ90 [1] [nM] | Papp [8] [×10⁻⁶ cm/s] | bioavailability (in vivo [10]) [%] | half-life [11] [h] | further results
Cc1noc(-c2ccc(Cl)cc2-c2ccc([C@@H](C)NC(=O)C3(NC(=O)C(F)(F)F)CC3)c(F)c2)n1 | 7.6 | – | – | – | – | –
COC(=O)c1cc(Cl)ccc1-c1ccc([C@@H](C)NC(=O)C2(NC(=O)C(F)(F)F)CC2)c(F)c1 | 134 | – | – | – | – | –
COC(=O)c1c(Cl)cccc1-c1ccc([C@@H](C)NC(=O)C2(NC(=O)C(F)(F)F)CC2)c(F)c1 [MK0686] | – | 520 | – | – | – | Kp at 0.5 h ([5]; brain and plasma): 0.4; logP [7]: > 3.6
COC(=O)c1ccc(Cl)cc1-c1ccc([C@@H](C)NC(=O)C2(NC(=O)C(F)(F)F)CC2)c(F)c1 | 2.05 | – | – | – | – | –
CCOC(=O)c1c(Cl)cc(Cl)cc1-c1ccc([C@@H](C)NC(=O)C2(NC(=O)C(F)(F)F)CC2)c(F)c1 | 1.85 | – | – | – | – | –
C[C@@H](NC(=O)C1(NC(=O)C(F)(F)F)CC1)c1ccc(-c2cc(Cl)ccc2-c2nnn(C)n2)cc1F | 1.45 | – | – | – | – | –
COC(=O)c1c(Cl)cc(Cl)cc1-c1cnc([C@@H](C)NC(=O)C2(NC(=O)C(F)(F)F)CC2)c(F)c1 | 2.6 | 210 | 29 | 19 | 1.3 | bioavailability (in vivo [2]): 66%; half-life [3]: 6.6 h; half-life [4]: 2.5 h; Kp at 0.5 h ([5]; brain and plasma): 0.8; clearance [6]: 16.6 mL/min/kg; logP [7]: 3.3; bioavailability (in vivo [9]): 12%
C[C@@H](NC(=O)C1(NC(=O)C(F)(F)F)CC1)c1ccc(-c2cc(Cl)cc(Cl)c2-c2nnn(C)n2)cc1F | 1.58 | 540 | – | – | – | –
Cc1nc(-c2c(Cl)cc(Cl)cc2-c2ccc([C@@H](C)NC(=O)C3(NC(=O)C(F)(F)F)CC3)c(F)c2)no1 | 2.4 | – | 23 | 39 | 5.6 | clearance [6]: 0.8 mL/min/kg
CCOC(=O)c1c(Cl)cc(Cl)cc1-c1cnc([C@@H](C)NC(=O)C2(NC(=O)C(F)(F)F)CC2)c(F)c1 | 1.8 | – | – | – | – | –
C[C@@H](NC(=O)C1(NC(=O)C(F)(F)F)CC1)c1ncc(-c2cc(Cl)cc(Cl)c2-c2nnn(C)n2)cc1F | 3.8 | – | – | – | – | –

Further lines, with some results ahead:

Ki (B1 bradykinin receptor) [nM] | Occ90 [1] [nM] | Papp [8] [×10⁻⁶ cm/s] | bioavailability (in vivo [10]) [%] | half-life [11] [h] | Compound | further results
0.77 | 350 | – | – | – | COC(=O)c1c(Cl)cccc1-c1cnc([C@@H](C)NC(=O)C2(NC(=O)C(F)(F)F)CC2)c(F)c1 | –
1.2 | 225 | 28 | 52 | 0.8 | CCOC(=O)c1c(Cl)cccc1-c1cnc([C@@H](C)NC(=O)C2(NC(=O)C(F)(F)F)CC2)c(F)c1 | bioavailability (in vivo [2]): 20%; half-life [3]: 2.3 h; half-life [4]: 1.1 h; Kp at 0.5 h ([5]; brain and plasma): 0.7; clearance [6]: 6.8 mL/min/kg; logP [7]: 3.6; bioavailability (in vivo [9]): 12%
0.68 | – | 27 | 21 | 0.8 | COC(=O)c1c(F)cc(Cl)cc1-c1ccc([C@@H](C)NC(=O)C2(NC(=O)C(F)(F)F)CC2)c(F)c1 | clearance [6]: 13 mL/min/kg
1.1 | – | 23 | 64 | 3.5 | C[C@@H](NC(=O)C1(NC(=O)C(F)(F)F)CC1)c1ccc(-c2cc(Cl)cc(F)c2-c2nnn(C)n2)cc1F | clearance [6]: 2.3 mL/min/kg
0.46 | 450 | 18 | 38 | 4.6 | COC(=O)c1c(Cl)cc(Cl)cc1-c1ccc([C@@H](C)NC(=O)C2(NC(=O)C(F)(F)F)CC2)c(F)c1 | bioavailability (in vivo [2]): 19%; half-life [4]: 3.9 h; Kp at 0.5 h ([5]; brain): 1.1; logP [7]: > 3.8; bioavailability (in vivo [9]): 20%
1.39 | – | – | – | – | Cc1nc(-c2ccc(Cl)cc2-c2ccc([C@@H](C)NC(=O)C3(NC(=O)C(F)(F)F)CC3)c(F)c2)no1 | –
